In patent US11759455B2, “Substituted 1H-imidazo[4,5-b]pyridin-2(3H)-ones and their use as GLUN2B receptor modulators” (JANSSEN PHARMACEUTICA NV, priority 2016, dated 2023):

biological target: T1, human GluN1/GluN2B NMDA receptors (Homo sapiens, UniProt Q13224); assay: Cell-based calcium flux (FLIPR) assay on cloned human NR1/NR2B ion channels expressed in mammalian cells (standard and HTS buffer variants); conditions: HTS assay buffer (1.5 mM MgCl2 in dye loading buffer; 150 mM NaCl, 3 mM KCl in assay buffer), human GluN1/GluN2B, read-out: NR2B IC50 (μM) HTS assay;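 further: stable Tet-On inducible cell line, Ca2+ influx triggered by glutamate at about EC40 plus 10 µM glycine, fluorescent dye read-out over 5 min, normalized to control wells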
T1 construct: expressed in transfected cells
T1 sequence (Q13224 27-1484, other chains not shown): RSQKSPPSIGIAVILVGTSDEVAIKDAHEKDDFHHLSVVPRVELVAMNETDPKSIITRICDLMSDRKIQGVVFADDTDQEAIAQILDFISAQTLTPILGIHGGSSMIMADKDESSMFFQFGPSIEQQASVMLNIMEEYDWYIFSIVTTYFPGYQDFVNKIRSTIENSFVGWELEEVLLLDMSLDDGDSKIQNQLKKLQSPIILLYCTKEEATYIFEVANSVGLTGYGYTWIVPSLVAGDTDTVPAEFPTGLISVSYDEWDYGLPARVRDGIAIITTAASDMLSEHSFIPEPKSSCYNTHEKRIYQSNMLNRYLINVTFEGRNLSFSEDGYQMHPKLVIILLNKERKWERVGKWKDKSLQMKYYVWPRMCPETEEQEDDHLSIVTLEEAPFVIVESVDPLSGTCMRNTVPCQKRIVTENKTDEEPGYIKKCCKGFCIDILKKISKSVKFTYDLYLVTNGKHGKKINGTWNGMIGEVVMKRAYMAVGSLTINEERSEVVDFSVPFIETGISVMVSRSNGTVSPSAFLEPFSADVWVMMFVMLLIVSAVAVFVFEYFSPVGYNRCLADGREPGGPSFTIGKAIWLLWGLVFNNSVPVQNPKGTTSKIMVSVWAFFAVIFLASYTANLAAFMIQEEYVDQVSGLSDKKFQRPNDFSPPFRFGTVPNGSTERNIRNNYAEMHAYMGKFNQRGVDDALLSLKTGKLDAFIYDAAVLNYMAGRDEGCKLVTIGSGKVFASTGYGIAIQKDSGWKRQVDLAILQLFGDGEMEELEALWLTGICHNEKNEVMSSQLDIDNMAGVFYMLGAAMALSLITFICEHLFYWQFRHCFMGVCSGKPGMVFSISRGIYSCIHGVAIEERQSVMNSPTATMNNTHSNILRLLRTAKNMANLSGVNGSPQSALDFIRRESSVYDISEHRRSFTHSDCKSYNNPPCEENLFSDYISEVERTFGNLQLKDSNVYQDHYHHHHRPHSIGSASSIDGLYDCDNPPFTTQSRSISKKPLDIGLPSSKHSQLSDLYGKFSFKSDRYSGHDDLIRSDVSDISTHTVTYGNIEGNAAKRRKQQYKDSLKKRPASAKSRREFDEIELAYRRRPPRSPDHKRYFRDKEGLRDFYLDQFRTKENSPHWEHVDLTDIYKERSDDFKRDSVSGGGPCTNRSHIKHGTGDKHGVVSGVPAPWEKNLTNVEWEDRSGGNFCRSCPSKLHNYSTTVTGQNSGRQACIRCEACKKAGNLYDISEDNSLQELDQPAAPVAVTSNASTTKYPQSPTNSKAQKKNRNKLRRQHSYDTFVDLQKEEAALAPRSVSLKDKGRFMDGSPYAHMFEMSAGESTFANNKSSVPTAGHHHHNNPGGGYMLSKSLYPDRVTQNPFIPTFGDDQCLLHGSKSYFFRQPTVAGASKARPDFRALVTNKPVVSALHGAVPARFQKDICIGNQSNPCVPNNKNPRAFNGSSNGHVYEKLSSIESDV

**Q.** How did the IC50 turn out when `CCOc1ccc(F)cc1-c1cnc2[nH]c(=O)n(CC(=O)c3cccs3)c2c1` [Example 460, 6-(2-Ethoxy-5-fluoro-phenyl)-1-[2-oxo-2-(2-thienyl)ethyl]-3H-imidazo[4,5-b]pyridin-2-one] was run?
**A.** 1.77 µM

**Q.** How did the IC50 turn out when `CCOc1cccc(-c2cnc3[nH]c(=O)n(CC(=O)c4cccs4)c3c2)c1` [Example 463, 6-(3-Ethoxyphenyl)-1-[2-oxo-2-(2-thienyl)ethyl]-3H-imidazo[4,5-b]pyridin-2-one] was run?
**A.** 0.36 µM

**Q.** With `COc1ccc(-c2cnc3[nH]c(=O)n(CC4CC4)c3c2)c(OC)c1` [Example 465, 1-(Cyclopropylmethyl)-6-(2,4-dimethoxyphenyl)-3H-imidazo[4,5-b]pyridin-2-one] as the compound, how does the IC50 read?
**A.** 14.4 µM

**Q.** For `CCOc1ccc(F)cc1-c1cnc2[nH]c(=O)n(CC3CC3)c2c1` [Example 466, 1-(Cyclopropylmethyl)-6-(2-ethoxy-5-fluoro-phenyl)-3H-imidazo[4,5-b]pyridin-2-one], which IC50 is on record?
**A.** 15.8 µM

**Q.** For `COc1cc(F)ccc1-c1cnc2[nH]c(=O)n(CC3CC3)c2c1` [Example 467, 1-(Cyclopropylmethyl)-6-(4-fluoro-2-methoxy-phenyl)-3H-imidazo[4,5-b]pyridin-2-one], which IC50 is on record?
**A.** 0.305 µM

**Q.** `COc1ccc(-c2cnc3[nH]c(=O)n(CC4CC4)c3c2)cc1C` [Example 468, 1-(Cyclopropylmethyl)-6-(4-methoxy-3-methyl-phenyl)-3H-imidazo[4,5-b]pyridin-2-one] was tested. Which IC50 did it give?
**A.** 4.17 µM

**Q.** How did the IC50 turn out when `COc1ccc(-c2cnc3[nH]c(=O)n(CC4CC4)c3c2)cc1F` [Example 469, 1-(Cyclopropylmethyl)-6-(3-fluoro-4-methoxy-phenyl)-3H-imidazo[4,5-b]pyridin-2-one] was run?
**A.** 0.944 µM

**Q.** For `O=c1[nH]c2ncc(-c3cc(F)cc(F)c3)cc2n1CC1CC1` [Example 470, 1-(Cyclopropylmethyl)-6-(3,5-difluorophenyl)-3H-imidazo[4,5-b]pyridin-2-one], which IC50 is on record?
**A.** 0.509 µM

**Q.** Which IC50 does the source give for `CN(C)c1cccc(-c2cnc3[nH]c(=O)n(CC4CC4)c3c2)c1` [Example 473, 1-(Cyclopropylmethyl)-6-[3-(dimethylamino)phenyl]-3H-imidazo[4,5-b]pyridin-2-one] here?
**A.** 15.7 µM

**Q.** `COc1cccc(-c2cnc3[nH]c(=O)n(CC4CCCO4)c3c2)c1` (centres unmarked) [Example 475, 6-(3-Methoxyphenyl)-1-(tetrahydrofuran-2-ylmethyl)-3H-imidazo[4,5-b]pyridin-2-one] was tested. Which IC50 did it give?
**A.** 0.157 µM

**Q.** `COc1ccc(-c2cnc3[nH]c(=O)n(Cc4ccc(C#N)cc4)c3c2)cc1` [Example 476, 4-[[6-(4-Methoxyphenyl)-2-oxo-3H-imidazo[4,5-b]pyridin-1-yl]methyl]benzonitrile] was tested. Which IC50 did it give?
**A.** 4.53 µM

**Q.** For `COc1ccc(-c2cnc3[nH]c(=O)n(Cc4cccc(C#N)c4)c3c2)cc1` [Example 477, 3-[[6-(4-Methoxyphenyl)-2-oxo-3H-imidazo[4,5-b]pyridin-1-yl]methyl]benzonitrile], which IC50 is on record?
**A.** 3.16 µM

**Q.** For `COc1cc(F)ccc1-c1cnc2[nH]c(=O)n(Cc3cccc(C#N)c3)c2c1` [Example 478, 3-[[6-(4-Fluoro-2-methoxy-phenyl)-2-oxo-3H-imidazo[4,5-b]pyridin-1-yl]methyl]benzonitrile], which IC50 is on record?
**A.** 3.04 µM

**Q.** Which IC50 does the source give for `N#Cc1cccc(Cn2c(=O)[nH]c3ncc(-c4ccc(F)c(Cl)c4)cc32)c1` [Example 480, 3-[[6-(3-Chloro-4-fluoro-phenyl)-2-oxo-3H-imidazo[4,5-b]pyridin-1-yl]methyl]benzonitrile] here?
**A.** 4.22 µM

**Q.** With `N#Cc1ccccc1Cn1c(=O)[nH]c2ncc(-c3ccc(Cl)cc3)cc21` [Example 482, 2-[[6-(4-Chlorophenyl)-2-oxo-3H-imidazo[4,5-b]pyridin-1-yl]methyl]benzonitrile] as the compound, how does the IC50 read?
**A.** 1.41 µM

**Q.** How did the IC50 turn out when `Cc1cc(F)ccc1-c1cnc2[nH]c(=O)n(Cc3ccccc3C#N)c2c1` [Example 483, 2-[[6-(4-Fluoro-2-methyl-phenyl)-2-oxo-3H-imidazo[4,5-b]pyridin-1-yl]methyl]benzonitrile] was run?
**A.** 1.8 µM

**Q.** `N#Cc1cccc(-c2cnc3[nH]c(=O)n(Cc4ccccc4C#N)c3c2)c1` [Example 486, 2-[[6-(3-Cyanophenyl)-2-oxo-3H-imidazo[4,5-b]pyridin-1-yl]methyl]benzonitrile] was tested. Which IC50 did it give?
**A.** 3.84 µM

**Q.** For `COc1ccc(-c2cnc3[nH]c(=O)n(Cc4ccccc4C#N)c3c2)c(OC)c1` [Example 487, 2-[[6-(2,4-Dimethoxyphenyl)-2-oxo-3H-imidazo[4,5-b]pyridin-1-yl]methyl]benzonitrile], which IC50 is on record?
**A.** 2.57 µM

**Q.** Which IC50 does the source give for `Cc1cc(C)cc(-c2cnc3[nH]c(=O)n(Cc4ccccc4C#N)c3c2)c1` [Example 488, 2-[[6-(3,5-Dimethylphenyl)-2-oxo-3H-imidazo[4,5-b]pyridin-1-yl]methyl]benzonitrile] here?
**A.** 4.95 µM

**Q.** Which IC50 does the source give for `CCOc1ccc(F)cc1-c1cnc2[nH]c(=O)n(Cc3ccccc3C#N)c2c1` [Example 489, 2-[[6-(2-Ethoxy-5-fluoro-phenyl)-2-oxo-3H-imidazo[4,5-b]pyridin-1-yl]methyl]benzonitrile] here?
**A.** 1.28 µM

**Q.** For `Cc1cc(F)ccc1-c1cnc2[nH]c(=O)n(Cc3ccc(F)cc3)c2c1` [Example 492, 6-(4-Fluoro-2-methyl-phenyl)-1-[(4-fluorophenyl)methyl]-3H-imidazo[4,5-b]pyridin-2-one], which IC50 is on record?
**A.** 6.12 µM

**Q.** Which IC50 does the source give for `COc1cccc(-c2cnc3[nH]c(=O)n(Cc4ccc(F)cc4)c3c2)c1OC` [Example 493, 6-(2,3-Dimethoxyphenyl)-1-[(4-fluorophenyl)methyl]-3H-imidazo[4,5-b]pyridin-2-one] here?
**A.** 1.01 µM

**Q.** How did the IC50 turn out when `CCOc1ccc(F)cc1-c1cnc2[nH]c(=O)n(Cc3cccc(F)c3)c2c1` [Example 494, 6-(2-Ethoxy-5-fluoro-phenyl)-1-[(3-fluorophenyl)methyl]-3H-imidazo[4,5-b]pyridin-2-one] was run?
**A.** 5.64 µM

**Q.** With `Cc1cc(C)cc(-c2cnc3[nH]c(=O)n(Cc4cccc(F)c4)c3c2)c1` [Example 495, 6-(3,5-Dimethylphenyl)-1-[(3-fluorophenyl)methyl]-3H-imidazo[4,5-b]pyridin-2-one] as the compound, how does the IC50 read?
**A.** 2.81 µM

**Q.** Which IC50 does the source give for `COc1ccc(-c2cnc3[nH]c(=O)n(Cc4cccc(F)c4)c3c2)c(OC)c1` [Example 496, 6-(2,4-Dimethoxyphenyl)-1-[(3-fluorophenyl)methyl]-3H-imidazo[4,5-b]pyridin-2-one] here?
**A.** 2.79 µM

**Q.** How did the IC50 turn out when `CCOc1ccccc1-c1cnc2[nH]c(=O)n(Cc3cccc(F)c3)c2c1` [Example 497, 6-(2-Ethoxyphenyl)-1-[(3-fluorophenyl)methyl]-3H-imidazo[4,5-b]pyridin-2-one] was run?
**A.** 1.95 µM

same assay, conditions: standard assay buffer (0.5 mM MgCl2 in dye loading buffer; 137 mM NaCl, 4 mM KCl in assay buffer), human GluN1/GluN2B, read-out: NR2B IC50 (μM) standard assay

**Q.** Which IC50 does the source give for `COc1ccc(-c2cnc3[nH]c(=O)n(CC(=O)c4cccs4)c3c2)cc1` [Example 461, 6-(4-Methoxyphenyl)-1-[2-oxo-2-(2-thienyl)ethyl]-3H-imidazo[4,5-b]pyridin-2-one] here?
**A.** 0.054 µM

**Q.** Which IC50 does the source give for `COc1cc(F)ccc1-c1cnc2[nH]c(=O)n(CC(=O)c3cccs3)c2c1` [Example 462, 6-(4-Fluoro-2-methoxy-phenyl)-1-[2-oxo-2-(2-thienyl)ethyl]-3H-imidazo[4,5-b]pyridin-2-one] here?
**A.** 0.255 µM

**Q.** Which IC50 does the source give for `O=C(Cn1c(=O)[nH]c2ncc(-c3ccc(F)c(Cl)c3)cc21)c1cccs1` [Example 464, 6-(3-Chloro-4-fluoro-phenyl)-1-[2-oxo-2-(2-thienyl)ethyl]-3H-imidazo[4,5-b]pyridin-2-one] here?
**A.** 0.359 µM

**Q.** How did the IC50 turn out when `COc1ccc(-c2cnc3[nH]c(=O)n(CC4CC4)c3c2)cc1` [Example 471, 1-(Cyclopropylmethyl)-6-(4-methoxyphenyl)-3H-imidazo[4,5-b]pyridin-2-one] was run?
**A.** 1.8 µM

**Q.** Which IC50 does the source give for `O=c1[nH]c2ncc(-c3cccs3)cc2n1CC1CC1` [Example 472, 1-(Cyclopropylmethyl)-6-(2-thienyl)-3H-imidazo[4,5-b]pyridin-2-one] here?
**A.** 1.56 µM

**Q.** With `Cc1cc(C)cc(-c2cnc3[nH]c(=O)n(CC4CC4)c3c2)c1` [Example 474, 1-(Cyclopropylmethyl)-6-(3,5-dimethylphenyl)-3H-imidazo[4,5-b]pyridin-2-one] as the compound, how does the IC50 read?
**A.** 3.57 µM

**Q.** With `Cc1cc(F)ccc1-c1cnc2[nH]c(=O)n(Cc3cccc(C#N)c3)c2c1` [Example 479, 3-[[6-(4-Fluoro-2-methyl-phenyl)-2-oxo-3H-imidazo[4,5-b]pyridin-1-yl]methyl]benzonitrile] as the compound, how does the IC50 read?
**A.** 0.778 µM

**Q.** `COc1cccc(F)c1-c1cnc2[nH]c(=O)n(Cc3ccccc3C#N)c2c1` [Example 481, 2-[[6-(2-Fluoro-6-methoxy-phenyl)-2-oxo-3H-imidazo[4,5-b]pyridin-1-yl]methyl]benzonitrile] was tested. Which IC50 did it give?
**A.** 2.25 µM

**Q.** With `CCOc1ccccc1-c1cnc2[nH]c(=O)n(Cc3ccccc3C#N)c2c1` [Example 484, 2-[[6-(2-Ethoxyphenyl)-2-oxo-3H-imidazo[4,5-b]pyridin-1-yl]methyl]benzonitrile] as the compound, how does the IC50 read?
**A.** 1.39 µM

**Q.** For `COc1cccc(-c2cnc3[nH]c(=O)n(Cc4ccccc4C#N)c3c2)c1` [Example 485, 2-[[6-(3-Methoxyphenyl)-2-oxo-3H-imidazo[4,5-b]pyridin-1-yl]methyl]benzonitrile], which IC50 is on record?
**A.** 0.031 µM

**Q.** `COc1cc(F)ccc1-c1cnc2[nH]c(=O)n(Cc3ccccc3C#N)c2c1` [Example 490, 2-[[6-(4-Fluoro-2-methoxy-phenyl)-2-oxo-3H-imidazo[4,5-b]pyridin-1-yl]methyl]benzonitrile] was tested. Which IC50 did it give?
**A.** 0.046 µM

**Q.** `COc1ccc(-c2cnc3[nH]c(=O)n(Cc4ccccc4C#N)c3c2)cc1F` [Example 491, 2-[[6-(3-Fluoro-4-methoxy-phenyl)-2-oxo-3H-imidazo[4,5-b]pyridin-1-yl]methyl]benzonitrile] was tested. Which IC50 did it give?
**A.** 0.053 µM

**Q.** For `COc1ccc(-c2cnc3[nH]c(=O)n(Cc4cccc(F)c4)c3c2)cc1C` [Example 498, 1-[(3-Fluorophenyl)methyl]-6-(4-methoxy-3-methyl-phenyl)-3H-imidazo[4,5-b]pyridin-2-one], which IC50 is on record?
**A.** 2.22 µM

**Q.** `COc1cc(F)ccc1-c1cnc2[nH]c(=O)n(Cc3cccc(F)c3)c2c1` [Example 499, 6-(4-Fluoro-2-methoxy-phenyl)-1-[(3-fluorophenyl)methyl]-3H-imidazo[4,5-b]pyridin-2-one] was tested. Which IC50 did it give?
**A.** 0.09 µM

**Q.** How did the IC50 turn out when `CN(C)c1cccc(-c2cnc3[nH]c(=O)n(Cc4cccc(F)c4)c3c2)c1` [Example 500, 6-[3-(Dimethylamino)phenyl]-1-[(3-fluorophenyl)methyl]-3H-imidazo[4,5-b]pyridin-2-one] was run?
**A.** 6.08 µM
